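Method: 48-hour compound exposure of cells in 96-well plates, five concentrations, linear interpolation of endpoints. GI50 is the concentration that inhibits growth by half. TGI is the concentration that stops growth completely.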
Test system: MDA-MB-468 breast
Experiment: NCI anticancer screen, dose series, 48 h

COc1cc(OC)c(/C=C/S(=O)(=O)Cc2ccc(OC)c(NC(=O)CCC(=O)NO)c2)c(OC)c1
GI50: 0.0549 µM
TGI: > 100 µM

O=C(/C=C/C=C/c1c(C2CC2)nc2ccccc2c1-c1ccc(F)cc1)c1cccs1
GI50: 2.75 µM
TGI: > 100 µM

O=[N+]([O-])c1ccccc1NC1c2ccccc2Oc2ccccc21
GI50: 2.21 µM
TGI: 5.4 µM

Nc1ccccc1NC(=O)c1ccc(CCCC(=O)Nc2ccc(C3CC3N)cc2)cc1 (stereo unspecified)
GI50: 1.62 µM
TGI: 4.53 µM

CN(C)C/C=C/C(=O)Nc1cc2c(Nc3ccc(F)c(Cl)c3F)ncnc2cc1OCCOC(F)F
GI50: < 0.01 µM

O=C(NCCCNc1cc(-c2cn(-c3ccccc3)nc2-c2cccc(O)c2)ccn1)Nc1ccc(F)cc1
GI50: 1.18 µM
TGI: 4.66 µM

CC(C)CC(=O)Nc1n[nH]c2c1CN(C(=O)C1CCN(C)CC1)C2(C)C
GI50: 1.13 µM
TGI: 5.18 µM

N#CSc1c[nH]c2ccc(/C=C/C(=O)/C=C(/C=C/c3ccc4[nH]cc(SC#N)c4c3)OB(F)F)cc12
GI50: 0.91 µM
TGI: 4.09 µM

Cc1cc(O)c(C2=NN(c3ccc(S(N)(=O)=O)cc3)C(c3ccc(N(C)C)cc3)C2)c(C)c1Cl (stereo unspecified)
GI50: 17.1 µM
TGI: 33.8 µM

N#CC(C#N)N=Nc1ccc(Br)cc1
GI50: 1.01 µM
TGI: 5.1 µM

O=C(O)CCC/C=C\C[C@H]1C=CC(=O)/C1=C/C[C@@H](O)CCc1cccc(C(F)(F)F)c1
GI50: 1.24 µM
TGI: 3.27 µM

COC1=CC(=O)C(OC)=C(OC)C1=O
GI50: 1.61 µM
TGI: 3.16 µM

C[C@@H]1Cc2c([nH]c3ccccc23)[C@@H](c2c(F)cc(NC3CN(CCCF)C3)cc2F)N1CC(F)(F)CO
GI50: 1.95 µM
TGI: 4.86 µM

CN1CCN(c2ccc(Nc3nc(N)c(C(=O)c4ccc5c(c4)OCCO5)s3)cc2)CC1
GI50: 5.56 µM
TGI: > 17.6 µM

Fc1ccc(-c2ncn(C3CCNCC3)c2-c2ccnc(Oc3ccc(F)c(F)c3)n2)cc1
GI50: 2.34 µM
TGI: 5.86 µM

CN1C(=O)[C@@H](NC(=O)[C@H](CCC(F)(F)F)[C@H](CCC(F)(F)F)C(N)=O)N=C(c2ccccc2)c2ccccc21
GI50: 21.2 µM
TGI: > 100 µM

O=c1c(O)cccc2cc(O)c(O)c(O)c12
GI50: 47.6 µM
TGI: > 100 µM

CN(C)c1ncc(-c2ccc(C(F)(F)F)cc2)c(NC2CCCCCC2)n1
GI50: 14.3 µM
TGI: 37.1 µM

CN1CCN(c2cc(C(=O)Nc3cc4cc(-c5cnn(C)c5)ccc4cn3)ccn2)CC1
GI50: 0.0348 µM
TGI: 0.286 µM

CCC(=C(c1ccc(OCCN(C)C)cc1)c1ccc(OCCN(C)C)cc1)c1ccc(Cl)cc1
GI50: 2.95 µM
TGI: 6.7 µM

Cc1cc(Nc2c3ccccc3nc3ccccc23)ccc1NS(C)(=O)=O
GI50: 2.29 µM
TGI: 8.81 µM

Cc1cccc(/C=C/C(=O)Nc2ncc(Cc3cccc(C)c3)s2)c1
GI50: 3.77 µM
TGI: > 100 µM

CCn1cc(-c2ccnc3[nH]ccc23)c(-c2cccc(NC(=O)Nc3ccc(OCc4ccccc4)cc3)c2)n1
GI50: 18.2 µM
TGI: > 25 µM

Cc1nccc2c3ccc(OCc4cn(-c5ccc(Cl)cc5)nn4)cc3n(CCCc3ccccc3)c12
GI50: 6.07 µM
TGI: 19.1 µM

COC(=O)Nc1nc2ccc(C(=O)c3ccc(N(C)C4COC4)cc3)cc2[nH]1
GI50: 0.224 µM
TGI: > 100 µM

Cc1cc2cn3c4ccc(O)cc4[nH]c(=O)c3c2cc1C
GI50: 0.178 µM
TGI: 0.772 µM

Reference: PubChem BioAssay (NCI)
